Usually inhibition stands for how much of the control response was suppressed. What is called IC50 is the midpoint of a concentration-inhibition curve. For orientation: logP means a log measure of how a compound divides between an organic and an aqueous phase.

Several values for one entry are separate records, joined by “and”; a condition that tells them apart may be missing. Equal entries are not always repeated. Where two headings read alike, the source gives them in different places.

Data set [1] addresses T1, hNav1.5 (Homo sapiens, UniProt Q14524).
T1 construct: host or cells: HEK293T
The experiment in a line: Whole-cell patch-clamp on HEK293T cells, late INa (CiPA-like protocol with ATX-II). Type of data set: cell-based. Here is the method:
Experiments were performed on HEK293T cell lines with persistent/inducible expression of different human cardiac ion channel isoforms: hNav1.5 and hKv7.1 + minK (Anaxon AG, Bern, Switzerland), hCav1.2 (α1c + β2 + α2δ1) (B’SYS GmbH, Witterswil, Switzerland), and hKv11.1 (hERG) (Cytocentrics Bioscience GmbH, Rostock, Germany). The cell lines were grown in standard conditions (37 °C, 5% CO2, 90% humidity) in DMEM:F12 medium (D8900, Sigma-Aldrich, Burlington, MA, USA) buffered with 15 mM HEPES, containing 3.15 g/L D-glucose and 0.055 g/L sodium pyruvate, supplemented with 1.2 g/L sodium bicarbonate, 10% fetal bovine serum (F2442, Sigma-Aldrich, Burlington, MA, USA), 2 mM L-glutamine (G7513, Sigma-Aldrich, Burlington, MA, USA), 1% penicillin–streptomycin (P4333, Sigma-Aldrich, Burlington, MA, USA), and with specific antibiotics for selection of transfected cells or induction of gene expression according to manufacturers’ instructions. The medium was changed every 2–3 days and the cells were passed weekly upon detachment with trypsin–EDTA solution. All cell culture media and solutions were sterile filtered with 0.22 μm polyvinylidene fluoride filters. Ncyte® vCardiomyocytes (Ncardia, Leiden, The Netherlands) were cultured in 24-well plates precoated with bovine fibronectin, following manufacturer’s instructions. For the experiments, cardiomyocytes were detached as described previously and plated on ϕ 10 mm glass coverslips, like the other cell lines.
Manual whole-cell patch-clamp experiments were performed at room temperature, with equipment as described in previous studies. Pipettes were pulled from Clark borosilicate glass capillaries with inner filament (GC150F-10, Harvard Apparatus, Holliston, MA, USA) and had typical resistances of 2–3 MΩ. Recordings were performed with a WPC-100 resistive feedback amplifier (ESF electronic, Göttingen, Germany) or an Axopatch 200B amplifier (Axon Instruments—Molecular Devices, San Jose, CA, USA) connected to a Digidata 1322A interface driven by the pClamp 8.2 Clampex module (Axon Instruments, part of Molecular Devices, San Jose, CA, USA). For different types of ion channel, we applied specific voltage-clamp protocols as follows: • - For hERG, a standard two-step activation protocol was used: holding at −70 mV, a 100 ms step at −50 mV used as current reference for measurements, a 2 s depolarizing step at +40 mV, followed by a 2 s step at −50 mV to elicit the peak hERG current by rapid recovery from inactivation, repeated sweeps at 10 s intervals, plus specific protocols to assess the voltage dependence of activation and inactivation, as described in Thomet et al., 2021 [11]. • - For hKv7.1 + minK, a general two-step activation protocol was used: holding at −110 mV, a 250 ms step at −80 mV with a brief (50 ms) step at −90 mV at the middle to monitor seal quality, a 3000 ms depolarizing step at +60 mV, followed by a 1000 ms step at −50 mV; repeated sweeps at 20 s intervals. • - For hCav1.2, a pharmacology protocol with holding at −80 mV, a first 100 ms step at −50 mV and a second 200 ms step at 0 mV, repeated sweeps at 20 s intervals with drug application after 5 sweeps if current levels were steady, plus an activation–inactivation protocol with holding at −80 mV, 1000 ms depolarizing steps from −80 to +50 mV in 10 mV increments, followed by 250 ms steps at +10 mV and a return to −80 mV; 14 sweeps at 20 s intervals. • - For hNav1.5, multiple voltage protocols were used, including the following: • - A standard pharmacology protocol with holding at −90 mV, a 20 ms step at −110 mV for seal monitoring, a 40 ms activation step at −10 mV, and repeated sweeps at 1 s intervals. […]
In general terms: Patch clamp records ionic current or voltage across a cell membrane.

The conditions of data set [2]: ref https://go.drugbank.com/drugs/DB06119; cited from earlier work.
On the set-up of data set [3]: method as in PMID 33031714. The conditions noted are these: adults with focal onset seizures; ref [2]; cited from earlier work.

T1 sequence (Q14524 whole entry): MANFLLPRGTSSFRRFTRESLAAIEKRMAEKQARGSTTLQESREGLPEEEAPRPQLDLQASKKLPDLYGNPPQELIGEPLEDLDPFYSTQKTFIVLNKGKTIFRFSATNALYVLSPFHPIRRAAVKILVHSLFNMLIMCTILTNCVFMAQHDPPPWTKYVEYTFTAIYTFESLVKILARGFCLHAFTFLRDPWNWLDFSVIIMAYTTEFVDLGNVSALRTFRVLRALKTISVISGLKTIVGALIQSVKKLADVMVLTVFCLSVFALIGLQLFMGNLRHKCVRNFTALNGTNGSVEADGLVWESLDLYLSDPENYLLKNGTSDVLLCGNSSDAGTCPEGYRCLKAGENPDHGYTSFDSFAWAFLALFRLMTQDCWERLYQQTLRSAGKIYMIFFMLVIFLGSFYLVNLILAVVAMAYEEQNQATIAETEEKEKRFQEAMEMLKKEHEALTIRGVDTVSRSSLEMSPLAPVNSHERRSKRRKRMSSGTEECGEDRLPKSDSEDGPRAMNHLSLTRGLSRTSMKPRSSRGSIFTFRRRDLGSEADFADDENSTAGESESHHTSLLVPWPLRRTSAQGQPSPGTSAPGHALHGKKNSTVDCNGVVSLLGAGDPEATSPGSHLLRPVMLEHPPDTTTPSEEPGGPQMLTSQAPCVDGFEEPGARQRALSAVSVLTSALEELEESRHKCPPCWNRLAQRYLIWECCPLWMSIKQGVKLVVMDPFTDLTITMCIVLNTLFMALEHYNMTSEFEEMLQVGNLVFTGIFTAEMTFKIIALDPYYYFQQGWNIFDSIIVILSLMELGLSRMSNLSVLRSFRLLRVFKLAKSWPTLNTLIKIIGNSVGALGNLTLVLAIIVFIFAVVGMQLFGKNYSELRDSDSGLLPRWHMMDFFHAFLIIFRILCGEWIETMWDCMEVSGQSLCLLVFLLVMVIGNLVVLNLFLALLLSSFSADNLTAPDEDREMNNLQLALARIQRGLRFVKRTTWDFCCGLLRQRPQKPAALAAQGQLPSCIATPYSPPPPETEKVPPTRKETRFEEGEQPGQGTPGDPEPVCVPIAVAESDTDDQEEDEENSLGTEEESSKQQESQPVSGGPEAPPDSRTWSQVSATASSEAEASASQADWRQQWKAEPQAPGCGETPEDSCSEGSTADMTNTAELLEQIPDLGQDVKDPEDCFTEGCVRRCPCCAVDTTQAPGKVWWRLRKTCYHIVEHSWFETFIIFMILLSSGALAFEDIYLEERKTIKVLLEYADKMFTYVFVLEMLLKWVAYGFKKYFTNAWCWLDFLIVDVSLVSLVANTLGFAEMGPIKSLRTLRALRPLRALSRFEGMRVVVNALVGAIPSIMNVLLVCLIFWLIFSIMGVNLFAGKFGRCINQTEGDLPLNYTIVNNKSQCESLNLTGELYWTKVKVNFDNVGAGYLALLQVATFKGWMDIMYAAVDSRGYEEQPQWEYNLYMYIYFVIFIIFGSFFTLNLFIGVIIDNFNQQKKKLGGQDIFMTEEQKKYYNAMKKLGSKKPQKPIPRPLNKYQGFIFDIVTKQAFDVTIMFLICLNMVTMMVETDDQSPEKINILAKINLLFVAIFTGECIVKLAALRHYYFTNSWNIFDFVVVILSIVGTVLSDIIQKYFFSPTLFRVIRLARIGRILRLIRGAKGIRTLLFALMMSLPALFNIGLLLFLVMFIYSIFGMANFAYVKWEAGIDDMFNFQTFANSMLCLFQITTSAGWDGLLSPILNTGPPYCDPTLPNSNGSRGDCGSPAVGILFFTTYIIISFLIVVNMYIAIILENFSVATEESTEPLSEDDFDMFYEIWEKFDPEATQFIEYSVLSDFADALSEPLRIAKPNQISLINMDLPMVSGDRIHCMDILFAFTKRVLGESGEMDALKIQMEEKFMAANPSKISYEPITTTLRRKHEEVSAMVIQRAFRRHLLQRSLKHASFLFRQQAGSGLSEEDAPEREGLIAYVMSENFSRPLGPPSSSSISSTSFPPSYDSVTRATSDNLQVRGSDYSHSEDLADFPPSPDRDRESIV

With `NC(=O)O[C@@H](Cn1ncnn1)c1ccccc1Cl` [cenobamate], in data set [1] (HEK-293T, cenobamate 1 µM, end of step at 0 mV, read-out: % INa inhibition (late), mean (Table S3)), the inhibition at 1 µM came to 5.58%. For the same compound, the inhibition at 10 µM in data set [1] (HEK-293T, cenobamate 10 µM, read-out: % INa inhibition (late), mean (Table S3)) is 25.4%; in data set [1] (HEK-293T, cenobamate 10 µM, read-out: % INa inhibition (late), single experiments (Table S3)), 25.1%. In addition, the inhibition at 40 µM worked out at 49.3% in data set [1] (HEK-293T, cenobamate 40 µM, read-out: % INa inhibition (late), mean (Table S3)) and 47.7% in data set [1] (HEK-293T, cenobamate 40 µM, read-out: % INa inhibition (late), single experiments (Table S3)). In addition, the inhibition at 100 µM amounted to 79.5% in data set [1] (HEK-293T, cenobamate 100 µM, read-out: % INa inhibition (late), mean (Table S3)) and 80.1% in data set [1] (HEK-293T, cenobamate 100 µM, read-out: % INa inhibition (late), single experiments (Table S3)). The inhibition at 200 µM in data set [1] (HEK-293T, cenobamate 200 µM, read-out: % INa inhibition (late), mean (Table S3)) came out at 94.4%; in data set [1] (HEK-293T, cenobamate 200 µM, read-out: % INa inhibition (late), single experiments (Table S3)), 96.7%. The IC50 turned out to be 46.5 µM in data set [1] (INaLIC50 (model script), value entered in C++ script) and 46.5 µM in data set [1] (apparent IC50 for late INa inhibition, ATX-II 20 nM or 100 nM, nH = 1). Also, the “% INa inhibition (late), single experiments (Table S3)” value in data set [1] (cenobamate 1 µM) is 9.80% and 4.35% and 2.59%; in data set [1] (cenobamate 10 µM) it was 27.99% and 16.75% and 31.85%; in data set [1] (cenobamate 40 µM), 42.71% and 49.53% and 57.45%; in data set [1] (cenobamate 100 µM) it was 91.98% and 72.79% and 79.43% and 73.06%; in data set [1] (cenobamate 200 µM) it was 94.40% and 94.64% and 86.94% and 99.56%. For the same compound, the logP in data set [2] is recorded as 1.66. Further, in data set [2], the physiological charge was 0. Further, the “strongest acidic pKa” value in data set [2] is 14.28. Besides, the “strongest basic pKa” value in data set [2] is recorded as −1.7. The “reduction in monthly seizure frequency” value in data set [3] was “up to 55%”. Moreover, in data set [3], the seizure-free rates result is on record as “up to 28%”.

Values taken from PMC11674187, “Inhibitory Effects of Cenobamate on Multiple Human Cardiac Ion Channels and Possible Arrhythmogenic Consequences” (Biomolecules, 2024).
